Ten compounds from patent US5843889A, “Glycopeptide antibiotic derivatives” (Eli Lilly and Company, priority 1997, dated 1998) can be followed below.

Values after ≈ are worked out from the molar mass of the structure shown. A value given as a limit tells only on which side of the number the result lay.

What all share (type): cell-based
Test [1] relates to Staphylococcus aureus S13E. How it is done:
(§1) The MIC's were determined using a standard broth micro-dilution assay.

Test [2] relates to Staphylococcus aureus SA1199B. As to the method: as §1
In test [3] the test system is Entercoccus faecalis 2041. Nature of the test: MIC, standard broth micro-dilution assay. As to the method:
(§2) The formula I compounds have in vitro and in vivo activity against Gram-positive pathogenic bacteria. The MIC's were determined using a standard broth micro-dilution assay.

The subject of a further test is Entercoccus faecalis 276. Kind of test: MIC, standard broth micro-dilution assay. As to the method: as §2
Test [4] has as its system Entercoccus gallinarum 245. Nature of the test: MIC, standard broth micro-dilution assay. As to the method:
as §2

Test [5] concerns Entercoccus faecium 180-1. Kind of test: MIC, standard broth micro-dilution assay. How it is done:
as §1

A further test deals with Entercoccus faecium 180. Kind of test: MIC, standard broth micro-dilution assay. How it is done: as §1
In a further test the test system is Escherichia coli EC14. Kind of test: MIC, standard broth micro-dilution assay. As to the method:
as §1

The test system of test [6] is Haemophilus influenzae RD. Nature of the test: MIC, standard broth micro-dilution assay. How it is done: as §1
In test [7] the test system is Staphylococcus aureus 446. Nature of the test: MIC, standard broth micro-dilution assay. As to the method: as §1
Test [8] has as its system Staphylococcus aureus 447. Nature of the test: MIC, standard broth micro-dilution assay. As to the method:
as §1

Test [9] deals with Staphylococcus aureus 489. Kind of test: MIC, standard broth micro-dilution assay. As to the method: as §1
In test [10] the test system is Staphylococcus aureus 491. Nature of the test: MIC, standard broth micro-dilution assay. How it is done: as §1
Test [11] deals with Staphylococcus aureus SA1199A. Kind of test: MIC, standard broth micro-dilution assay. How it is done: as §1
Test [12] has as its system Staphylococcus aureus SA1199. Nature of the test: MIC, standard broth micro-dilution assay. How it is done: as §1
Test [13] concerns Staphylococcus aureus X400. Nature of the test: MIC, standard broth micro-dilution assay. As to the method:
as §1

For test [14], the system named is Staphylococcus aureus X778. Nature of the test: MIC, standard broth micro-dilution assay. How it is done: as §1
Test [15] deals with Staphylococcus epidermidis 270. Kind of test: MIC, standard broth micro-dilution assay. As to the method:
as §1

Test [16] relates to Staphylococcus haemolyticus 105. Nature of the test: MIC, standard broth micro-dilution assay. How it is done:
as §1

Test [17] has as its system Staphylococcus haemolyticus 415. Kind of test: MIC, standard broth micro-dilution assay. As to the method:
as §1

Test [18] concerns Streptococcus pneumoniae P1. Kind of test: MIC, standard broth micro-dilution assay. How it is done:
as §1

The subject of another test is Pedicoccus acidilacti. Kind of test: MIC, agar dilution on brain-heart infusion agar. The settings on record: Pedioccccus acidilacti (mean of 10).
The next test has as its system Pediococcus pentosaceus. Nature of the test: MIC, agar dilution on brain-heart infusion agar. The settings on record: Pediococcus pentosaceus (mean of 2).
In another test the test system is Leuconostoc lactis. Kind of test: MIC, agar dilution on brain-heart infusion agar. The settings on record: Leuconostoc lactis (mean of 2).
Test [19] relates to Leuconostoc mesenteroides. Kind of test: MIC, agar dilution on brain-heart infusion agar. The settings on record: Leuconostoc mesenteroides (mean of 4).
The next test concerns Lactobacillus confusus. Kind of test: MIC, agar dilution on brain-heart infusion agar.

Take “4-[2-chloro-6-fluorobenzyloxy]benzyl [Compound 80]”: the MIC was 1 µg/mL in test [1]; 1 µg/mL in [2]; at most 0.06 µg/mL in [3]; at most 0.06 µg/mL in the test on Entercoccus faecalis 276; at most 0.06 µg/mL in [4].

In the case of `CNC(CC(C)C)C(=O)NC1C(=O)NC(CC(N)=O)C(=O)NC2C(=O)NC3C(=O)NC(C(=O)NC(C(=O)O)c4cc(O)cc(O)c4-c4cc3ccc4O)C(OC3CC(C)(N)C(O)C(C)O3)c3ccc(c(Cl)c3)Oc3cc2cc(c3OC2OC(CO)C(O)C(O)C2OC2CC(C)(NCc3cc(-c4ccccc4)nc4ccc(OC)cc34)C(O)C(C)O2)Oc2ccc(cc2Cl)C1O` (stereo not shown) [Compound 45, 4-[2-phenyl-6-methoxy]quinoylmethyl], the MIC in test [5] is at most 0.06 µg/mL; in the test on Entercoccus faecium 180 it was 1 µg/mL (≈ 0.544 µM); with Escherichia coli EC14, over 64 µg/mL; in test [6], over 64 µg/mL; in test [7] it was 1 µg/mL (≈ 0.544 µM); in test [8], 16 µg/mL (≈ 8.7 µM). Also, the MIC in test [9] was 0.5 µg/mL (≈ 0.272 µM); in [10], 1 µg/mL (≈ 0.544 µM); in test [11] it was at most 0.06 µg/mL; in [12], 2 µg/mL (≈ 1.09 µM); in [13], 0.25 µg/mL (≈ 0.136 µM); in test [14], 0.25 µg/mL (≈ 0.136 µM). In addition, the MIC is 8 µg/mL (≈ 4.35 µM) in [15]; 16 µg/mL (≈ 8.7 µM) in [16]; 8 µg/mL (≈ 4.35 µM) in test [17]; at most 0.06 µg/mL in test [18]; 0.5 µg/mL (≈ 0.272 µM) in [1]; 1 µg/mL (≈ 0.544 µM) in [2]. Besides, the MIC was found to be 0.125 µg/mL (≈ 0.0679 µM) in [3], 0.25 µg/mL (≈ 0.136 µM) in the test on Entercoccus faecalis 276 and 0.5 µg/mL (≈ 0.272 µM) in test [4].

On to “4-[2-[2-thiopropyl]ethoxy]benzyl [Compound 134]”, for which the MIC in test [1] came out at 2 µg/mL; in test [2], 2 µg/mL; in test [3] it was 0.25 µg/mL; in the test with Entercoccus faecalis 276, 1 µg/mL; in [4] it was 4 µg/mL.

For the compound “2-[4-chlorophenyl]-6-benzoxazolemethyl [Compound 116]”, the MIC in [1] was 1 µg/mL; in test [2] it was 0.5 µg/mL; in test [3], at most 0.06 µg/mL; with Entercoccus faecalis 276, 0.25 µg/mL; in test [4], 4 µg/mL.

`CNC(CC(C)C)C(=O)NC1C(=O)NC(CC(N)=O)C(=O)NC2C(=O)NC3C(=O)NC(C(=O)NC(C(=O)O)c4cc(O)cc(O)c4-c4cc3ccc4O)C(OC3CC(C)(N)C(O)C(C)O3)c3ccc(c(Cl)c3)Oc3cc2cc(c3OC2OC(CO)C(O)C(O)C2OC2CC(C)(NCc3c(O)ccc4ccccc34)C(O)C(C)O2)Oc2ccc(cc2Cl)C1O` (stereo not shown) [Compound 44]: the MIC in test [5] was at most 0.06 µg/mL; in the test on Entercoccus faecium 180 it was 8 µg/mL (≈ 4.57 µM); with Escherichia coli EC14, over 64 µg/mL; in [6] it was over 64 µg/mL; in test [7] it was 0.25 µg/mL (≈ 0.143 µM); in [8], 1 µg/mL (≈ 0.572 µM). In addition, the MIC is at most 0.06 µg/mL in test [9]; at most 0.06 µg/mL in [11]; 0.25 µg/mL (≈ 0.143 µM) in test [12]; at most 0.06 µg/mL in [13]; at most 0.06 µg/mL in [14]; 0.5 µg/mL (≈ 0.286 µM) in test [15]. The MIC in test [16] was 2 µg/mL (≈ 1.14 µM); in test [17], 4 µg/mL (≈ 2.29 µM); in test [1] it was 0.25 µg/mL (≈ 0.143 µM); in [2], 0.25 µg/mL (≈ 0.143 µM); in [3], at most 0.06 µg/mL; against Entercoccus faecalis 276 it was 0.125 µg/mL (≈ 0.0715 µM). Further, in test [4], the MIC was 0.5 µg/mL (≈ 0.286 µM).

Take `CNC(CC(C)C)C(=O)NC1C(=O)NC(CC(N)=O)C(=O)NC2C(=O)NC3C(=O)NC(C(=O)NC(C(=O)O)c4cc(O)cc(O)c4-c4cc3ccc4O)C(OC3CC(C)(N)C(O)C(C)O3)c3ccc(c(Cl)c3)Oc3cc2cc(c3OC2OC(CO)C(O)C(O)C2OC2CC(C)(NCc3ccc4cc(C)ccc4c3)C(O)C(C)O2)Oc2ccc(cc2Cl)C1O` (stereo not shown) [Compound 189]: the results for the MIC in [6], in [3] and in [4] were over 64 µg/mL, at most 0.06 µg/mL and 1 µg/mL (≈ 0.573 µM), respectively.

For the compound `CNC(CC(C)C)C(=O)NC1C(=O)NC(CC(N)=O)C(=O)NC2C(=O)NC3C(=O)NC(C(=O)NC(C(=O)O)c4cc(O)cc(O)c4-c4cc3ccc4O)C(OC3CC(C)(N)C(O)C(C)O3)c3ccc(c(Cl)c3)Oc3cc2cc(c3OC2OC(CO)C(O)C(O)C2OC2CC(C)(NCc3ccc(NC(=O)c4cccc(F)c4)cc3)C(O)C(C)O2)Oc2ccc(cc2Cl)C1O` (stereo not shown) [Compound 194, 4-[(3-fluorobenzoyl)amino]benzyl], the figures for the MIC in test [6], in test [3] and in [4] were 32 µg/mL (≈ 17.6 µM), at most 0.06 µg/mL and 2 µg/mL (≈ 1.1 µM), respectively.

As to `CNC(CC(C)C)C(=O)NC1C(=O)NC(CC(N)=O)C(=O)NC2C(=O)NC3C(=O)NC(C(=O)NC(C(=O)O)c4cc(O)cc(O)c4-c4cc3ccc4O)C(OC3CC(C)(N)C(O)C(C)O3)c3ccc(c(Cl)c3)Oc3cc2cc(c3OC2OC(CO)C(O)C(O)C2OC2CC(C)(NCc3ccc(-c4ccccc4C)cc3)C(O)C(C)O2)Oc2ccc(cc2Cl)C1O` (stereo not shown) [Compound 209], the MIC is 0.125 µg/mL (≈ 0.0705 µM) in [15], at most 0.06 µg/mL in [3] and 1 µg/mL (≈ 0.564 µM) in [4].

For the compound `CNC(CC(C)C)C(=O)NC1C(=O)NC(CC(N)=O)C(=O)NC2C(=O)NC3C(=O)NC(C(=O)NC(C(=O)O)c4cc(O)cc(O)c4-c4cc3ccc4O)C(OC3CC(C)(N)C(O)C(C)O3)c3ccc(c(Cl)c3)Oc3cc2cc(c3OC2OC(CO)C(O)C(O)C2OC2CC(C)(NCc3ccc(Cc4ccccc4)cc3)C(O)C(C)O2)Oc2ccc(cc2Cl)C1O` (stereo not shown) [Compound 50, 4-benzylbenzyl], the MIC in [5] is at most 0.06 µg/mL; in the test on Entercoccus faecium 180, 0.25 µg/mL (≈ 0.141 µM); in the test on Escherichia coli EC14, over 64 µg/mL; in test [6], over 64 µg/mL; in test [7], 0.5 µg/mL (≈ 0.282 µM); in test [8], 0.5 µg/mL (≈ 0.282 µM). For the same compound, the MIC in test [9] was at most 0.06 µg/mL; in [10], 0.5 µg/mL (≈ 0.282 µM); in [11], at most 0.06 µg/mL; in [12], 1 µg/mL (≈ 0.564 µM); in [15], 0.5 µg/mL (≈ 0.282 µM); in [16], 0.5 µg/mL (≈ 0.282 µM). Moreover, the MIC in [17] was 1 µg/mL (≈ 0.564 µM); in [18], at most 0.06 µg/mL; in test [2], 2 µg/mL (≈ 1.13 µM); in test [3] it was at most 0.06 µg/mL; against Entercoccus faecalis 276, 0.25 µg/mL (≈ 0.141 µM); in test [4], 1 µg/mL (≈ 0.564 µM). Also, the MIC stood at 51 µg/mL (≈ 28.8 µM) in the test on Pedicoccus acidilacti; 64 µg/mL (≈ 36.1 µM) in the test with Pediococcus pentosaceus; 64 µg/mL (≈ 36.1 µM) in the test with Leuconostoc lactis; 64 µg/mL (≈ 36.1 µM) in [19]; 64 µg/mL (≈ 36.1 µM) in the test on Lactobacillus confusus.

As to `CNC(CC(C)C)C(=O)NC1C(=O)NC(CC(N)=O)C(=O)NC2C(=O)NC3C(=O)NC(C(=O)NC(C(=O)O)c4cc(O)cc(O)c4-c4cc3ccc4O)C(OC3CC(C)(N)C(O)C(C)O3)c3ccc(c(Cl)c3)Oc3cc2cc(c3OC2OC(CO)C(O)C(O)C2OC2CC(C)(NCc3ccc(C(O)c4ccccc4)cc3)C(O)C(C)O2)Oc2ccc(cc2Cl)C1O` (stereo not drawn) [Compound 109, 4-[alpha-hydroxybenzyl]benzyl], the MIC is at most 0.06 µg/mL in test [5]; 0.25 µg/mL (≈ 0.14 µM) in the test on Entercoccus faecium 180; 32 µg/mL (≈ 17.9 µM) in test [6]; 1 µg/mL (≈ 0.559 µM) in test [7]; 1 µg/mL (≈ 0.559 µM) in [8]; at most 0.06 µg/mL in test [9]. Also, the MIC in [10] was 0.25 µg/mL (≈ 0.14 µM); in [11], at most 0.06 µg/mL; in test [12], at most 0.06 µg/mL; in [13] it was at most 0.06 µg/mL; in [14], at most 0.06 µg/mL; in test [15], 0.25 µg/mL (≈ 0.14 µM). For the same compound, the MIC in test [16] is 1 µg/mL (≈ 0.559 µM); in test [17] it was 4 µg/mL (≈ 2.24 µM); in test [1] it was 0.25 µg/mL (≈ 0.14 µM); in test [2], 0.5 µg/mL (≈ 0.28 µM); in test [3], at most 0.06 µg/mL; with Entercoccus faecalis 276 it was at most 0.06 µg/mL. In test [4], the MIC was at most 0.06 µg/mL.
